Measurements as given in ChEMBL document CHEMBL1201862, “PubChem BioAssay data set” (2004).
Active and inactive are the calls of the source.

Tests used:
Estrogen receptor beta = Estrogen receptor beta (Homo sapiens, UniProt Q92731); assay: ERβ–SRC-3 coactivator interaction inhibitors, confirmation, orthogonal assay, biochemical, ELISA, streptavidin-HRP readout (AID 1060)
Cytochrome P450 2C19 = Cytochrome P450 2C19 (Homo sapiens, UniProt P33261); assay: Cytochrome panel assay with activity outcomes. Panel member name: p450-cyp2c19 Compounds with AC50 equal or less than 10 uM are considered active; format: functional; settings: read-out: AC50
Transthyretin = Transthyretin (Homo sapiens, UniProt P02766); assay: Luminescence-based cell-based high throughput dose response assay to identify activators of Transthyretin (TTR) transcription.; format: functional
[1] = A375 melanoma cell viability loss, dose response, counter-screen for MITF inhibitor project, CellTiter-Glo luminescence, dry powder, set 4 (AID 624364); format: functional, cell-based; settings: A-375;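 also: A375 melanoma cells are MITF independent so this is a counter screen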
[2] = A375 melanoma cell cytotoxicity, dose response, counter-screen for MITF inhibitor project, CellTiter-Glo luminescence, dry powder, set 2 (AID 624489); format: functional, cell-based; settings: A-375;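 also: actives are compounds lowering A375 viability meaning general cytotoxicity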
[3] = ADAM10 inhibitors, peptide cleavage, dose response, biochemical, QFRET (AID 743254);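 also: ADAM10 enzyme with the DM2 quenched FRET peptide as substrate; EDANS fluorescence gain as the protease cuts the substrate; inhibitor potency against ADAM10 proteolytic activity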
[4] = target: Disintegrin and metalloproteinase domain-containing protein 17 (Homo sapiens, UniProt P78536); assay: ADAM17 protease inhibitors, dose response, counter-screen for ADAM10 exosite inhibitor project, biochemical, quenched FRET substrate (AID 743253)
[5] = CellTiter-Glo luminescent dose response of DLD-1 viability loss (AID 1117352); format: functional
[6] = cytotoxicity toward HT-29 cells – cell-based, CellTiter-Glo luminescence, IC50, dose response (AID 1117330); format: functional
[7] = target: T1, Polyadenylate-binding protein 1 (Homo sapiens, UniProt P11940); assay: PABP1 MLLE–PAM2 interaction inhibitors, dose response, miRNA deadenylation inhibitor project, biochemical, fluorescence polarization, Cy5-PAM2 peptide, secondary (AID 602260); format: functional; settings: read-out: IC50_Mean
[8] = Concentration-dependent survival of SW480 colon cancer line, luminescence detection with CellTiter-Glo, half-maximal inhibitory concentration (AID 1117338); format: functional
[9] = cytotoxicity toward Colo320 cells – cell-based, CellTiter-Glo luminescence, IC50, dose response (AID 1117334); format: functional; settings: COLO 320
[10] = SNU-C1 cell viability reduction, dose response, CellTiter-Glo luminescence (AID 1117323); format: functional, cell-based
[11] = cytotoxicity toward HCT116 cells – cell-based, CellTiter-Glo luminescence, IC50, dose response (AID 1117332); format: functional; settings: HCT-116
[12] = HCT116 cell viability decrease, GSK3B pretreatment – CellTiter-Glo, IC50, dose response (AID 1117339); format: functional; settings: HCT-116
[13] = target: T1, Polyadenylate-binding protein 1; assay: PABP1 MLLE–PAM2 binding inhibitor potency, dose response, biochemical, fluorescence polarization, FITC-PAM2 peptide (AID 602259); format: functional; settings: read-out: IC50_Mean
[14] = Jurkat T cell cytotoxicity, dose response, cytotoxicity control for P. falciparum gametocyte viability project, luminescence (AID 1117277); format: functional, cell-based;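 also: potency reflects loss of cellular ATP meaning fewer viable cells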
[15] = Luminescence Cell-Based Dose Retest to Confirm Inhibitors of Cancer Stem Cells. [Related pubchem assays (depositor defined):AID2717, AID2721]; format: functional; settings: Homo sapiens
[16] = P. falciparum late gametocyte killing, dose response, luminescence (AID 1117278); format: functional, cell-based;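 also: gametocytes exposed to compound for 24 hours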
Protein skinhead-1 = target: T2, Protein skinhead-1 (Caenorhabditis elegans, UniProt P34707); format: functional
T2 sequence (P34707 whole entry): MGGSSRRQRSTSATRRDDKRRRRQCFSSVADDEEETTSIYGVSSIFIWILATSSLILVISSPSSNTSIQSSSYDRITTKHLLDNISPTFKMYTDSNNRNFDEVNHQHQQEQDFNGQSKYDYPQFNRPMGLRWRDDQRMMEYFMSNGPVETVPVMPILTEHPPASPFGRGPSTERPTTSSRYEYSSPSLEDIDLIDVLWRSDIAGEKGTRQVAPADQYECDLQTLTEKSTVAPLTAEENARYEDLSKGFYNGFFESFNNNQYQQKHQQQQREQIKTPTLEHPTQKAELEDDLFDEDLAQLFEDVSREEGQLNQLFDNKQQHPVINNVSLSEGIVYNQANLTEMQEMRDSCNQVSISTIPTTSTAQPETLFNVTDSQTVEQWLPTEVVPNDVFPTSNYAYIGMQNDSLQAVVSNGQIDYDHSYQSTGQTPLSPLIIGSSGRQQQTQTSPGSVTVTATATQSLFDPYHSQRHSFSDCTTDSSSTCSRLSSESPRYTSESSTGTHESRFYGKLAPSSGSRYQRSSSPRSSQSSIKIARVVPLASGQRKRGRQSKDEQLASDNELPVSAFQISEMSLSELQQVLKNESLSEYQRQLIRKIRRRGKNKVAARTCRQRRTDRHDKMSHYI

[17] = target: Heat shock protein HSP 90-alpha (Homo sapiens, UniProt P07900); assay: Luminescence-based dose response biochemical high throughput screening assay for inhibitors of the Heat Shock Protein 90 (HSP90). [Related pubchem assays: 1831 (Summary AID.), 1846 (Confirmation screen.), 1789 (Primary screen.)]
[18] = HEK293 cell cytotoxicity, dose response, cytotoxicity control, plate reader, cherry-picked samples (AID 743446); format: functional, cell-based
[19] = HepG2 cell cytotoxicity, dose response, cytotoxicity control, plate reader, cherry-pick, antagonist series (AID 743416); format: functional, cell-based
[20] = LGR2 antagonists, dose response, cell-based, HEK293, CRE-luciferase reporter, cherry pick, set 2 (AID 743343); format: functional;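 also: transfected cells were stimulated with diluted bursicon conditioned medium after compound addition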
[21] = A549 cell cytotoxicity, dose response, cytotoxicity control, plate reader, cherry-pick, antagonist series (AID 743412); format: functional, cell-based
[22] = MC4R antagonists, dose response, counter-screen for LGR2 antagonist project, cell-based, plate reader, cherry pick (AID 743444); format: functional;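 also: transfected HEK 293 cells stimulated with alpha-MSH peptide; potency of inhibitors of the alpha-MSH evoked signal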

T1 sequence (P11940 whole entry): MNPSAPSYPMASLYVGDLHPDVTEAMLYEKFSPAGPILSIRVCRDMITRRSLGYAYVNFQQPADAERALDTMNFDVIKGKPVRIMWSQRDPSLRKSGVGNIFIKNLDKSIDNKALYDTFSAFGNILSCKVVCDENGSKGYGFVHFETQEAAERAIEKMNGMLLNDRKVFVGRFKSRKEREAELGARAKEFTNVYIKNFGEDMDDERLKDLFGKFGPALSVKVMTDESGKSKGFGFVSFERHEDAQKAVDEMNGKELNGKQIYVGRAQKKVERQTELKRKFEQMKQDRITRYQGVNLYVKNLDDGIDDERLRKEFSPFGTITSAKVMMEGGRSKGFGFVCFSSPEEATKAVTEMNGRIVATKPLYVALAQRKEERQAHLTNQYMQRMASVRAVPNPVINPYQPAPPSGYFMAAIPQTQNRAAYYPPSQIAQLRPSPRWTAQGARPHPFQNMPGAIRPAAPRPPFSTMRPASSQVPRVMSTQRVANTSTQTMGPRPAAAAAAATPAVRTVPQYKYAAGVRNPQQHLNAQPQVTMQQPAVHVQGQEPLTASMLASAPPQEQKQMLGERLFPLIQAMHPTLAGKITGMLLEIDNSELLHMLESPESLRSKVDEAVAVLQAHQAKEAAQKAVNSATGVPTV
Cytochrome P450 2C19, sequence (P33261 whole entry): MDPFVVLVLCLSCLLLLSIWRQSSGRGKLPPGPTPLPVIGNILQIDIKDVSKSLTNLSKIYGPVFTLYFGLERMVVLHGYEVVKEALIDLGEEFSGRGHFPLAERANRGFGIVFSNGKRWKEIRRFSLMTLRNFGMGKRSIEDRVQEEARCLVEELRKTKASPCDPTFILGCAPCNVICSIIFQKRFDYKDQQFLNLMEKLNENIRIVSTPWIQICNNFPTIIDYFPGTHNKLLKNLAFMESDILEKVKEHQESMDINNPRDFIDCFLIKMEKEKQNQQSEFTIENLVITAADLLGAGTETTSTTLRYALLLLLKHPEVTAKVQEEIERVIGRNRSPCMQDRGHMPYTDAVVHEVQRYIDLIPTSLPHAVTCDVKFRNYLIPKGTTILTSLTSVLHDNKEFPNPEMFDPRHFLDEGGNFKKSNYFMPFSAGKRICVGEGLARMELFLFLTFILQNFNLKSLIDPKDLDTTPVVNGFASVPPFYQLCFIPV
Disintegrin and metalloproteinase domain-containing protein 17, sequence (P78536 whole entry, the tested form may be a part): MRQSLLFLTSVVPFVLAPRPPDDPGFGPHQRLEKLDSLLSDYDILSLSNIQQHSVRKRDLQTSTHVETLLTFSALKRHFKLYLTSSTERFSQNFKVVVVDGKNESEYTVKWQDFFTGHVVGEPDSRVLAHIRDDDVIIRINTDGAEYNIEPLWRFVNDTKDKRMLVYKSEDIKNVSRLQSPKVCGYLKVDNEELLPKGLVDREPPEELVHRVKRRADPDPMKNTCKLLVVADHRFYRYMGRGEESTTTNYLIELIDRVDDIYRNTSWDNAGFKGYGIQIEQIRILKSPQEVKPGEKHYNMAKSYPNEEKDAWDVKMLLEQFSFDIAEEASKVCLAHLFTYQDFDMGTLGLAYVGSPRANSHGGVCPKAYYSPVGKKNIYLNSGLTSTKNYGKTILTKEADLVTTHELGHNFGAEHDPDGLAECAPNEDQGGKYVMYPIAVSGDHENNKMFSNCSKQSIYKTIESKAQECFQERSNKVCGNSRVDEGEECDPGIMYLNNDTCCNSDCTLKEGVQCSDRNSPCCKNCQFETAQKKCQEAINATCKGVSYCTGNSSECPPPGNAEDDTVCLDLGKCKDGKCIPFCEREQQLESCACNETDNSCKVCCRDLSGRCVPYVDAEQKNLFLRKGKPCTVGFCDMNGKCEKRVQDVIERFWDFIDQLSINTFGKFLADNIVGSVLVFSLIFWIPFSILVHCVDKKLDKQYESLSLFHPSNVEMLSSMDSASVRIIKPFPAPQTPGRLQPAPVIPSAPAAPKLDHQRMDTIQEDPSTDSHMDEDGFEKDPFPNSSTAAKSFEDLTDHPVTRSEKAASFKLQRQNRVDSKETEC
Estrogen receptor beta, sequence (Q92731 whole entry): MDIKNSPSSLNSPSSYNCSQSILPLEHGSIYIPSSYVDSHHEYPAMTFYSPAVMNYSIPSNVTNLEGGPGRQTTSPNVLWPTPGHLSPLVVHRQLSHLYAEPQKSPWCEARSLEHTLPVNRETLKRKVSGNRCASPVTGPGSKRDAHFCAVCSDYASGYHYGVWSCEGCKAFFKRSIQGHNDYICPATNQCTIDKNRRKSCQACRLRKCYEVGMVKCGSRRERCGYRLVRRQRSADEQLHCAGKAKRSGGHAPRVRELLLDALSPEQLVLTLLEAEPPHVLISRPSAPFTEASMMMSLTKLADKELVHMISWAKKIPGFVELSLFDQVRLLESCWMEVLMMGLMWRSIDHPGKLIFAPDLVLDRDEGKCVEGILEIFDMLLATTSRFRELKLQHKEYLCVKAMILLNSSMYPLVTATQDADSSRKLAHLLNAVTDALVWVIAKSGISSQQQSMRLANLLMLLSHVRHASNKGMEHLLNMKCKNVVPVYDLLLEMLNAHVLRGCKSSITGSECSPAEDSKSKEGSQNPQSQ

With `Nc1cc(-c2nnn[nH]2)ccc1F` the IC50 (Estrogen receptor beta) was 0.859 µM (not active) and the AC50 (Cytochrome P450 2C19) was 28.2 µM (inconclusive).

In the case of `Cc1ccc(Nc2c3c(nc4ncnn24)CCC3)cc1`, the EC50 (Transthyretin) is reported as > 167 µM (inactive).

In the case of `O=C(NC1=C(c2ccccc2)C(=O)c2ccccc2C1=O)c1ccccc1`, the AC50 [1] is reported as 47.5 µM (active) and the AC50 [2] is reported as 18.3 µM (active).

In the case of `CCOc1ccc(/C=N/NC(=O)Cc2csc(Nc3cccc(C(F)(F)F)c3)n2)c(OCC)c1`, the IC50 [3] is reported as > 69.5 µM (inactive) and the IC50 [4] is reported as > 69.5 µM (inactive).

In the case of `COP(=S)(OC)Oc1ccc(Sc2ccc(OP(=S)(OC)OC)cc2)cc1` [TEMEFOS], the IC50 [5] is reported as > 20 µM (inactive), the IC50 [6] is reported as > 20 µM (inactive) and the IC50 [7] is reported as > 66 µM (inactive). The IC50 [8] was 0.0118 µM (active), the IC50 [9] was > 20 µM (inactive) and the IC50 [10] was 3.03 µM (active). The IC50 [11] was > 20 µM (inactive), the IC50 [12] was > 20 µM (inactive) and the IC50 [13] was > 66 µM (inactive).

With `Cc1ccc(C(=O)NC2c3ccccc3-c3ccccc32)cc1` the IC50 [14] was > 1.03 µM (active), the AC50 [15] was 0.448 µM (active) and the IC50 [16] was > 109 µM (inactive).

In the case of `O=[N+]([O-])c1cccc(-c2noc(-c3ccco3)n2)c1`, the EC50 (Transthyretin) is reported as > 167 µM (inactive) and the IC50 (Protein skinhead-1) is reported as > 100 µM (inactive).

For `O=C(O)c1cc(N/N=C/c2c[nH]c3ccccc23)ccc1Cl`, the IC50 [17] was > 2 µM (active).

In the case of `CCCCc1c(-c2cccc(OC)c2)ncn1CCc1ccccc1OC`, the AC50 [18] is reported as 29 µM (active), the AC50 [19] is reported as 15.1 µM (active) and the AC50 [20] is reported as 16.3 µM (active). The AC50 [21] was 19.2 µM (active) and the AC50 [22] was 12.9 µM (active).
